Data published in patent US20110034335A1, “Treatment of Ornamental Plants” (priority 2009, published 2011).

Columns and labels:
Test in all cases: Spray with 1-MCP solutions with or without Silwet L-77, ethylene challenge (Example 2)
Format in all cases: in vivo
‘Candy Stripe’ phlox = details: for Bud or Flower Abscission (%): Day 5
Protocol: (§1) Spray applications were made using (unless otherwise noted) AFxRD-038 powder containing 3.8% active ingredient, i.e. 1-MCP, and also containing dextrose, alpha-cyclodextrin, and amino acid salt. Rates listed are for active ingredient e.g. 5 mg active ingredient per liter. Sprayed liquid contained (unless otherwise noted) AFxRD-038 powder added to water. AFxRD-038 powder was obtained from AgroFresh Inc. The water used (unless otherwise noted) was tap water. Applications were done in 500 ml spray bottles at rates typical for growth regulators applications in the ornamental industry i.e., 200 ml per square meter. Spraying was done within 5-15 minutes of mixing the formulation. Plants were allowed to dry for 1-4 hours before being challenged with ethylene (2 ppm for about 16 hours at ambient temperatures).
(§2) Surfactant Silwet™ L-77 (called “surf” below) was sometimes included to evaluate the effect of surfactant on efficacy. Silwet™ L-77 was used in the form of a pure liquid. The amounts shown below as “ml/L” refer to milliliters of pure Silwet™ L-77 per liter of liquid CP composition.
(§3) Kalanchoe (unknown cultivar), ‘Candy Stripe’ phlox and ‘Sonnet’ snapdragon (all in pots of diameter 10 cm (4 inch)) were sprayed with 1-MCP solutions, with or without Silwet™ L-77 surfactant (specific gravity 1.007), and challenged with ethylene.
(§4) For Kanlanchoe, we observed the percent of plants on which one or more flowers died by wilting, whether or not it stayed on the plant. For Phlox and Snapdragon, we observed the percent of plants on which one or more flowers or one or more buds underwent abscission.

‘Sonnet’ snapdragon = details: for Bud or Flower Abscission (%): Day 5
Protocol: as §1, §2, §3, §4

Kalanchoe = test system: Kalanchoe
Protocol: as §1, §2, §3, §4

CC1=CC1 [1-MCP, 1-methylcyclopropene]
protection against ethylene (‘Candy Stripe’ phlox; 1-MCP 5 mg/L): sufficient in giving protection against ethylene | Bud or Flower Abscission (%) (‘Candy Stripe’ phlox; 1-MCP 5 mg/L, surf 0 ml/L): 21.4% | Bud or Flower Abscission (%) (‘Candy Stripe’ phlox; 1-MCP 5 mg/L, surf 0.25 ml/L): 26.0% | Bud or Flower Abscission (%) (‘Candy Stripe’ phlox; 1-MCP 10 mg/L, surf 0 ml/L): 17.3% | Bud or Flower Abscission (%) (‘Candy Stripe’ phlox; 1-MCP 10 mg/L, surf 0.25 ml/L): 22.8% | Bud or Flower Abscission (%) (‘Candy Stripe’ phlox; 1-MCP 25 mg/L, surf 0 ml/L): 15.8% | Bud or Flower Abscission (%) (‘Candy Stripe’ phlox; 1-MCP 25 mg/L, surf 0.25 ml/L): 21.2% | Bud or Flower Abscission (%) (‘Candy Stripe’ phlox; 1-MCP 50 mg/L, surf 0 ml/L): 44.1% | Bud or Flower Abscission (%) (‘Candy Stripe’ phlox; 1-MCP 50 mg/L, surf 0.25 ml/L): 40.0% | phytotoxicity to the open florets (‘Candy Stripe’ phlox; the highest rates of 1-MCP): caused phytotoxicity to the open florets | protection against ethylene (‘Sonnet’ snapdragon; 1-MCP 5 mg/L): sufficient in giving protection against ethylene | Bud or Flower Abscission (%) (‘Sonnet’ snapdragon; 1-MCP 5 mg/L, surf 0 ml/L): 19.9% | Bud or Flower Abscission (%) (‘Sonnet’ snapdragon; 1-MCP 5 mg/L, surf 0.25 ml/L): 0.0% | Bud or Flower Abscission (%) (‘Sonnet’ snapdragon; 1-MCP 10 mg/L, surf 0 ml/L): 4.4% | Bud or Flower Abscission (%) (‘Sonnet’ snapdragon; 1-MCP 10 mg/L, surf 0.25 ml/L): 3.3% | Bud or Flower Abscission (%) (‘Sonnet’ snapdragon; 1-MCP 25 mg/L, surf 0 ml/L): 7.4% | Bud or Flower Abscission (%) (‘Sonnet’ snapdragon; 1-MCP 25 mg/L, surf 0.25 ml/L): 3.3% | phytotoxicity on flowers (‘Sonnet’ snapdragon; 1-MCP 50 mg/L): did not result in any phytotoxicity | Bud or Flower Abscission (%) (‘Sonnet’ snapdragon; 1-MCP 50 mg/L, surf 0 ml/L): 6.4% | Bud or Flower Abscission (%) (‘Sonnet’ snapdragon; 1-MCP 50 mg/L, surf 0.25 ml/L): 8.9% | phytotoxicity to the open florets (‘Sonnet’ snapdragon; the highest rates of 1-MCP): caused phytotoxicity to the open florets | protection against ethylene (Kalanchoe; 1-MCP 5 mg/L): sufficient in giving protection against ethylene | Flower Wilting (%) (Kalanchoe; 1-MCP 5 mg/L, surf 0 ml/L, Day 5): 7.9% | Flower Wilting (%) (Kalanchoe; 1-MCP 5 mg/L, surf 0 ml/L, Day 15): 11.9% | Flower Wilting (%) (Kalanchoe; 1-MCP 5 mg/L, surf 0.25 ml/L, Day 5): 7.3% | Flower Wilting (%) (Kalanchoe; 1-MCP 5 mg/L, surf 0.25 ml/L, Day 15): 8.7% | Flower Wilting (%) (Kalanchoe; 1-MCP 10 mg/L, surf 0 ml/L, Day 5): 5.6% | Flower Wilting (%) (Kalanchoe; 1-MCP 10 mg/L, surf 0 ml/L, Day 15): 6.7% | Flower Wilting (%) (Kalanchoe; 1-MCP 10 mg/L, surf 0.25 ml/L, Day 5): 5.5% | Flower Wilting (%) (Kalanchoe; 1-MCP 10 mg/L, surf 0.25 ml/L, Day 15): 6.8% | Flower Wilting (%) (Kalanchoe; 1-MCP 25 mg/L, surf 0 ml/L, Day 5): 4.6% | Flower Wilting (%) (Kalanchoe; 1-MCP 25 mg/L, surf 0 ml/L, Day 15): 7.2% | Flower Wilting (%) (Kalanchoe; 1-MCP 25 mg/L, surf 0.25 ml/L, Day 5): 6.2% | Flower Wilting (%) (Kalanchoe; 1-MCP 25 mg/L, surf 0.25 ml/L, Day 15): 7.4% | phytotoxicity (Kalanchoe; 1-MCP 50 mg/L): did not result in any phytotoxicity | Flower Wilting (%) (Kalanchoe; 1-MCP 50 mg/L, surf 0 ml/L, Day 5): 6.7% | Flower Wilting (%) (Kalanchoe; 1-MCP 50 mg/L, surf 0 ml/L, Day 15): 7.5% | Flower Wilting (%) (Kalanchoe; 1-MCP 50 mg/L, surf 0.25 ml/L, Day 5): 5.7% | Flower Wilting (%) (Kalanchoe; 1-MCP 50 mg/L, surf 0.25 ml/L, Day 15): 6.7%
